Here are results for 33 compounds from US11299461B2 (priority 2018, dated 2022).

This assay has as its target LF 263-C catalytic domain (anthrax lethal factor) (Bacillus anthracis, UniProt P15917). Kind of assay: biochemical.

By Ki is commonly meant the dissociation constant of the complex between target and ligand, obtained from inhibition or displacement. Read a low Ki as tighter binding.

LF 263-C catalytic domain (anthrax lethal factor), sequence (P15917 296-809 limits assumed): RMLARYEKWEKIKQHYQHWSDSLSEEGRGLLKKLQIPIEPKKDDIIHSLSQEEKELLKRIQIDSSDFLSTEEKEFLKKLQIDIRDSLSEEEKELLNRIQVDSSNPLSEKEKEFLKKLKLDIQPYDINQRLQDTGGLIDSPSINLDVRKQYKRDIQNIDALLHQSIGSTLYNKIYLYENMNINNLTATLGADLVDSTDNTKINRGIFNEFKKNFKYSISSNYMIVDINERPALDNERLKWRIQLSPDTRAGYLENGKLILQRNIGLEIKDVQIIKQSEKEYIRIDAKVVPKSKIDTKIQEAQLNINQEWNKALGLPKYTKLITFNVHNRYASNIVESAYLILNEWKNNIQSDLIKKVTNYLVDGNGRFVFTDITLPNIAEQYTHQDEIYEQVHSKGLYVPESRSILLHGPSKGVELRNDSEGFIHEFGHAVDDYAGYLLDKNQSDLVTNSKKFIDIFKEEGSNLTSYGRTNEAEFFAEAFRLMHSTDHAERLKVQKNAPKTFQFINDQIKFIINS

Regarding `Cc1ccc([C@@H](CO)NCCCC[C@@H](Nc2cc(C)c(F)c(C)c2)C(=O)NO)nc1` [Compound 1, (R)-2-((4-fluoro-3,5-dimethylphenyl)amino)-N-hydroxy-6-(((S)-2-hydroxy-1-(5-methylpyridin-2-yl)ethyl)amino)hexanamide], the inhibition constant (Ki) was found to be 0.17 nM.
`Cc1cc(N[C@H](CCCCN[C@H](CO)c2ccc(F)cn2)C(=O)NO)cc(C)c1F` [Compound 2, (R)-2-((4-fluoro-3,5-dimethylphenyl)amino)-6-(((S)-1-(5-fluoropyridin-2-yl)-2-hydroxyethyl)amino)-N-hydroxyhexanamide] had a Ki of 0.14 nM.
`Cc1cc(N[C@H](CCCCN[C@@H](c2ccc(F)cn2)C(C)C)C(=O)NO)cc(C)c1F` [Compound 3, (R)-2-((4-fluoro-3,5-dimethylphenyl)amino)-6-(((R)-1-(5-fluoropyridin-2-yl)-2-methylpropyl)amino)-N-hydroxyhexanamide]: the Ki was found to be 0.2 nM.
Turning to `Cc1cc(N[C@H](CCCCN[C@@H](c2ccc(Cl)cn2)C(C)C)C(=O)NO)cc(C)c1F` [Compound 4, (R)-6-(((R)-1-(5-chloropyridin-2-yl)-2-methylpropyl)amino)-2-((4-fluoro-3,5-dimethylphenyl)amino)-N-hydroxyhexanamide], the affinity, expressed as Ki, was 0.45 nM.
Regarding `CC[C@@H](NCCCC[C@@H](Nc1cc(C)c(F)c(C)c1)C(=O)NO)c1ncc(F)cc1F` [Compound 5, (R)-6-(((R)-1-(3,5-difluoropyridin-2-yl)propyl)amino)-2-((4-fluoro-3,5-dimethylphenyl)amino)-N-hydroxyhexanamide], the affinity corresponds to a Ki of 0.39 nM.
Next, `Cc1cc(N[C@H](CCCCN[C@@H](c2ncc(F)cc2F)C(C)C)C(=O)NO)cc(C)c1F` [Compound 6, (R)-6-(((R)-1-(3,5-difluoropyridin-2-yl)-2-methylpropyl)amino)-2-((4-fluoro-3,5-dimethylphenyl)amino)-N-hydroxyhexanamide]: 0.28 nM; `Cc1cc(N[C@H](CCCCN[C@H](C)c2ccc(Cl)cn2)C(=O)NO)cc(C)c1F` [Compound 7, (R)-6-(((R)-1-(5-chloropyridin-2-yl)ethyl)amino)-2-((4-fluoro-3,5-dimethylphenyl)amino)-N-hydroxyhexanamide]: 0.35 nM; `CC[C@@H](NCCCC[C@@H](Nc1cc(C)c(F)c(C)c1)C(=O)NO)c1ccc(F)cn1` [Compound 8, (R)-2-((4-fluoro-3,5-dimethylphenyl)amino)-6-(((R)-1-(5-fluoropyridin-2-yl)propyl)amino)-N-hydroxyhexanamide]: 0.57 nM.
`Cc1cc(C[C@H](CCCCNCc2ccccn2)C(=O)NO)cc(C)c1F` [Compound 9, (S)-2-(4-fluoro-3,5-dimethylbenzyl)-N-hydroxy-6-((pyridin-2-ylmethyl)amino)hexanamide] registered a Ki of 1 nM.
To `Cc1cc(C[C@H](CCCCN[C@H](C)c2ccc(F)cn2)C(=O)NO)cc(C)c1F` [Compound 10, (S)-2-(4-fluoro-3,5-dimethylbenzyl)-6-(((R)-1-(5-fluoropyridin-2-yl)ethyl)amino)-N-hydroxyhexanamide] belongs 0.15 nM.
Next, `Cc1ccc([C@@H](C)NCCCC[C@@H](Cc2cc(C)c(F)c(C)c2)C(=O)NO)nc1` [Compound 11, (S)-2-(4-fluoro-3,5-dimethylbenzyl)-N-hydroxy-6-(((R)-1-(5-methylpyridin-2-yl)ethyl)amino)hexanamide]: 0.08 nM.
Turning to `Cc1cc(C[C@H](CCCCN[C@H](CO)c2ccc(F)cn2)C(=O)NO)cc(C)c1F` [Compound 12, (S)-2-(4-fluoro-3,5-dimethylbenzyl)-6-(((S)-1-(5-fluoropyridin-2-yl)-2-hydroxyethyl)amino)-N-hydroxyhexanamide], affinity was put at a Ki of 0.08 nM.
Regarding `Cc1ccc([C@@H](CO)NCCCC[C@@H](Cc2cc(C)c(F)c(C)c2)C(=O)NO)nc1` [Compound 13, (S)-2-(4-fluoro-3,5-dimethylbenzyl)-N-hydroxy-6-(((S)-2-hydroxy-1-(5-methylpyridin-2-yl)ethyl)amino)hexanamide], the Ki came to 0.07 nM.
To `Cc1cc(C[C@H](CCCCN[C@H](C)c2ccc(C(F)(F)F)cn2)C(=O)NO)cc(C)c1F` [Compound 14, (S)-2-(4-fluoro-3,5-dimethylbenzyl)-N-hydroxy-6-(((R)-1-(5-(trifluoromethyl)pyridin-2-yl)ethyl)amino)hexanamide] belongs 1.3 nM; to `CCN(CCCC[C@@H](Cc1cc(C)c(F)c(C)c1)C(=O)NO)[C@H](C)c1ccc(C(F)(F)F)cn1` [Compound 15, (S)-6-(ethyl((R)-1-(5-(trifluoromethyl)pyridin-2-yl)ethyl)amino)-2-(4-fluoro-3,5-dimethylbenzyl)-N-hydroxyhexanamide], 3.6 nM.
Compound `COc1ccc([C@@H](C)NCCCC[C@@H](Cc2cc(C)c(F)c(C)c2)C(=O)NO)nc1` [Compound 16, (S)-2-(4-fluoro-3,5-dimethylbenzyl)-N-hydroxy-6-(((R)-1-(5-methoxypyridin-2-yl)ethyl)amino)hexanamide] showed a Ki of 0.31 nM.
To `CCN(CCCC[C@@H](Cc1cc(C)c(F)c(C)c1)C(=O)NO)[C@H](C)c1ccc(OC)cn1` [Compound 17, (S)-6-(ethyl((R)-1-(5-methoxypyridin-2-yl)ethyl)amino)-2-(4-fluoro-3,5-dimethylbenzyl)-N-hydroxyhexanamide] belongs 4.5 nM.
Compound `Cc1cc(C[C@H](CCCCN(C)Cc2ccc(F)cn2)C(=O)NO)cc(C)c1F` [Compound 18, (S)-2-(4-fluoro-3,5-dimethylbenzyl)-6-(((5-fluoropyridin-2-yl)methyl)(methyl)amino)-N-hydroxyhexanamide] showed a Ki of 1.6 nM.
Next, `COc1ccc(CN(C)CCCC[C@@H](Cc2cc(C)c(F)c(C)c2)C(=O)NO)nc1` [Compound 19, (S)-2-(4-fluoro-3,5-dimethylbenzyl)-N-hydroxy-6-(((5-methoxypyridin-2-yl)methyl)(methyl)amino)hexanamide]: 1.4 nM; `Cc1cc(C[C@H](CCCCNC(C)(C)c2ccc(F)cn2)C(=O)NO)cc(C)c1F` [Compound 20, (S)-2-(4-fluoro-3,5-dimethylbenzyl)-6-((2-(5-fluoropyridin-2-yl)propan-2-yl)amino)-N-hydroxyhexanamide]: 0.19 nM; `Cc1cc(C[C@H](CCCCN[C@@H](c2ccc(F)cn2)C(C)C)C(=O)NO)cc(C)c1F` [Compound 21, (S)-2-(4-fluoro-3,5-dimethylbenzyl)-6-(((R)-1-(5-fluoropyridin-2-yl)-2-methylpropyl)amino)-N-hydroxyhexanamide]: 0.11 nM.
Next, `Cc1cc(C[C@H](CCCCN[C@@H](c2ccc(Cl)cn2)C(C)C)C(=O)NO)cc(C)c1F` [Compound 22, (S)-6-(((R)-1-(5-chloropyridin-2-yl)-2-methylpropyl)amino)-2-(4-fluoro-3,5-dimethylbenzyl)-N-hydroxyhexanamide]: 0.17 nM; `Cc1cc(C[C@H](CCCCN[C@@H](c2ncc(F)cc2F)C(C)C)C(=O)NO)cc(C)c1F` [Compound 23, (S)-6-(((R)-1-(3,5-difluoropyridin-2-yl)-2-methylpropyl)amino)-2-(4-fluoro-3,5-dimethylbenzyl)-N-hydroxyhexanamide]: 0.25 nM; `Cc1cc(C[C@H](CCCCN[C@@H](C)c2ccc(F)cn2)C(=O)NO)cc(C)c1F` [Compound 24, (S)-2-(4-fluoro-3,5-dimethylbenzyl)-6-(((S)-1-(5-fluoropyridin-2-yl)ethyl)amino)-N-hydroxyhexanamide]: 0.44 nM.
Turning to `CC[C@@H](NCCCC[C@@H](Cc1cc(C)c(F)c(C)c1)C(=O)NO)c1ncc(F)cc1F` [Compound 25, (S)-6-(((R)-1-(3,5-difluoropyridin-2-yl)propyl)amino)-2-(4-fluoro-3,5-dimethylbenzyl)-N-hydroxyhexanamide], affinity was put at a Ki of 0.12 nM.
The compound `Cc1cc(C[C@H](CCCCN[C@H](c2ccc(F)cn2)C(C)C)C(=O)NO)cc(C)c1F` [Compound 26, (S)-2-(4-fluoro-3,5-dimethylbenzyl)-6-(((S)-1-(5-fluoropyridin-2-yl)-2-methylpropyl)amino)-N-hydroxyhexanamide] returned a Ki of 0.87 nM.
Next, `Cc1cc(C[C@H](CCCCN[C@H](C)c2ccc(Cl)cn2)C(=O)NO)cc(C)c1F` [Compound 27, (S)-6-(((R)-1-(5-chloropyridin-2-yl)ethyl)amino)-2-(4-fluoro-3,5-dimethylbenzyl)-N-hydroxyhexanamide]: 0.08 nM; `CC[C@@H](NCCCC[C@@H](Cc1cc(C)c(F)c(C)c1)C(=O)NO)c1ccc(F)cn1` [Compound 28, (S)-2-(4-fluoro-3,5-dimethylbenzyl)-6-(((R)-1-(5-fluoropyridin-2-yl)propyl)amino)-N-hydroxyhexanamide]: 0.08 nM; `Cc1cc(C[C@H](CCCCN(C)Cc2ccc(F)cn2)C(=O)NO)cc(Cl)c1F` [Compound 29, (S)-2-(3-chloro-4-fluoro-5-methylbenzyl)-6-(((5-fluoropyridin-2-yl)methyl)(methyl)amino)-N-hydroxyhexanamide]: 1.1 nM.
Next, `Cc1cc(C[C@H](CCCCN[C@@H](c2ccc(F)cn2)C(C)C)C(=O)NO)cc(Cl)c1F` [Compound 30, (S)-2-(3-chloro-4-fluoro-5-methylbenzyl)-6-(((R)-1-(5-fluoropyridin-2-yl)-2-methylpropyl)amino)-N-hydroxyhexanamide]: 0.25 nM.
For the compound `Cc1cc(C[C@H](CCCCN[C@@H](c2ccc(Cl)cn2)C(C)C)C(=O)NO)cc(Cl)c1F` [Compound 31, (S)-2-(3-chloro-4-fluoro-5-methylbenzyl)-6-(((R)-1-(5-chloropyridin-2-yl)-2-methylpropyl)amino)-N-hydroxyhexanamide], the Ki was found to be 0.26 nM. This Ki and that of the compound before are within 1.5-fold of each other.
As to `COc1ccc(CN(C)CCCC[C@@H](Cc2cc(C)c(F)c(Cl)c2)C(=O)NO)nc1` [Compound 32, (S)-2-(3-chloro-4-fluoro-5-methylbenzyl)-N-hydroxy-6-(((5-methoxypyridin-2-yl)methyl)(methyl)amino)hexanamide], affinity was put at a Ki of 1.5 nM.
Take `CN(CCCC[C@@H](Cc1cc(Cl)c(F)c(Cl)c1)C(=O)NO)Cc1ccc(F)cn1` [Compound 33, (S)-2-(3,5-dichloro-4-fluorobenzyl)-6-(((5-fluoropyridin-2-yl)methyl)(methyl)amino)-N-hydroxyhexanamide]: the affinity corresponds to a Ki of 1.6 nM.
